Molecules are shown by their SMILES. “And” between values parts separate entries of the source, which are not always exact repeats. Identical values can stand only once. Inconclusive results and toxic doses are left out.

The values below come from PubChem BioAssay AID248 (DTP/NCI, 2004).

The experiment relates to L1210 leukemia ip in BDF1 mice, survival T/C. Put plainly: NCI In Vivo Anticancer Drug Screen. Data for tumor model L1210 Leukemia (intraperitoneal) in B6D2F1 (BDF1) mice. To be noted: endpoint: mean survival time, higher = longer survival. The gist of the method: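 Mice bearing the transplanted tumor received compound or vehicle. Survival of the treated group was divided by that of the vehicle-treated control group to give the ratio.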

The mark [1] stands for this setting: dose: 50.0 mg/kg/injection, schedule: Q01DX001 (ip), vehicle: saline.
Setting [2] is: dose: 100.0 mg/kg/injection, schedule: Q01DX001 (ip), vehicle: saline.
The mark [3] stands for this setting: dose: 200.0 mg/kg/injection, schedule: Q01DX001 (ip), vehicle: saline.
The mark [4] stands for this setting: dose: 400.0 mg/kg/injection, schedule: Q01DX001 (ip), vehicle: saline.
Where [5] appears, read: dose: 100.0 mg/kg/injection, schedule: Q01DX009 (ip), vehicle: Klucel (hydroxypropylcellulose) (HPC).
The mark [6] stands for this setting: dose: 200.0 mg/kg/injection, schedule: Q01DX009 (ip), vehicle: Klucel (hydroxypropylcellulose) (HPC).
Where [7] appears, read: dose: 400.0 mg/kg/injection, schedule: Q01DX009 (ip), vehicle: Klucel (hydroxypropylcellulose) (HPC).
Where [8] appears, read: dose: 100.0 mg/kg/injection, schedule: Q01DX001 (ip), vehicle: other.
[9] abbreviates: dose: 200.0 mg/kg/injection, schedule: Q01DX001 (ip), vehicle: other.
[10] abbreviates: dose: 400.0 mg/kg/injection, schedule: Q01DX001 (ip), vehicle: other.

With `OCC1OC(n2cnc3cncnc32)C(O)C1O` (stereo unspecified), the T/C is, setting by setting: (dose: 1.9 mg/kg/injection, schedule: Q01DX015 (ip), vehicle: saline) 108 % of control; (dose: 2.5 mg/kg/injection, schedule: Q01DX015 (ip), vehicle: saline) 104 % of control; (dose: 2.8 mg/kg/injection, schedule: Q01DX015 (ip), vehicle: saline) 151 % of control; (dose: 4.3 mg/kg/injection, schedule: Q01DX015 (ip), vehicle: saline) 110 % of control; (dose: 5.0 mg/kg/injection, schedule: Q01DX015 (ip), vehicle: saline) 106 % of control; (dose: 6.5 mg/kg/injection, schedule: Q01DX015 (ip), vehicle: saline) 108 % of control. Besides, the T/C (dose: 9.7 mg/kg/injection, schedule: Q01DX015 (ip), vehicle: saline) is 112 % of control; the T/C (dose: 10.0 mg/kg/injection, schedule: Q01DX015 (ip), vehicle: saline) is 118 % of control; the T/C (dose: 20.0 mg/kg/injection, schedule: Q01DX015 (ip), vehicle: saline) was 93 % of control; the T/C under setting [1] is 117 % of control and 122 % of control; the T/C under setting [2] was 123 % of control.

On to `COC1OC(COS(=O)(=O)c2ccc(C)cc2)C(N(C)C(C)=O)C1OS(=O)(=O)c1ccc(C)cc1` (stereo unspecified), for which the T/C by setting is: (dose: 100.0 mg/kg/injection, schedule: Q01DX001 (ip), vehicle: carboxymethylcellulose (CMC)) 96 % of control; (dose: 200.0 mg/kg/injection, schedule: Q01DX001 (ip), vehicle: carboxymethylcellulose (CMC)) 91 % of control; (dose: 400.0 mg/kg/injection, schedule: Q01DX001 (ip), vehicle: carboxymethylcellulose (CMC)) 91 % of control.

`O=c1[nH]cc(B(O)O)c(=O)[nH]1`: the T/C runs as follows: under setting [2], 94 % of control; under setting [3], 98 % of control; under setting [4], 98 % of control.

Consider `CCCCC(C=O)(CCN1CCCC1)c1cccc2ccccc12` (stereo unspecified), for which the T/C by setting is: (dose: 25.0 mg/kg/injection, schedule: Q04DX002 (ip), vehicle: saline with Tween-80) 88 % of control; (dose: 50.0 mg/kg/injection, schedule: Q04DX002 (ip), vehicle: saline with Tween-80) 100 % of control; (dose: 100.0 mg/kg/injection, schedule: Q04DX002 (ip), vehicle: saline with Tween-80) 103 % of control.

For the compound `CCOC(=O)CSC(=S)N1CCOCC1`, the T/C is 94 % of control (dose: 100.0 mg/kg/injection, schedule: Q01DX001 (ip), vehicle: Klucel (hydroxypropylcellulose) (HPC)); 97 % of control (dose: 200.0 mg/kg/injection, schedule: Q01DX001 (ip), vehicle: Klucel (hydroxypropylcellulose) (HPC)); 102 % of control (dose: 400.0 mg/kg/injection, schedule: Q01DX001 (ip), vehicle: Klucel (hydroxypropylcellulose) (HPC)).

For `C[N+]12CN3CN(C1)S(=O)(=O)N(C3)C2`, the T/C (dose: 100.0 mg/kg/injection, schedule: Q01DX009 (ip), vehicle: saline) was 107 % of control; the T/C (dose: 100.0 mg/kg/injection, schedule: Q04DX003 (ip), vehicle: saline) is 95 % of control; the T/C (dose: 200.0 mg/kg/injection, schedule: Q01DX009 (ip), vehicle: saline) was 108 % of control; the T/C (dose: 200.0 mg/kg/injection, schedule: Q04DX003 (ip), vehicle: saline) was 97 % of control; the T/C (dose: 400.0 mg/kg/injection, schedule: Q01DX009 (ip), vehicle: saline) is 110 % of control; the T/C (dose: 400.0 mg/kg/injection, schedule: Q04DX003 (ip), vehicle: saline) was 103 % of control.

Regarding `Cc1ccc(S(=O)(=O)Oc2ccc(C(C)(C)c3ccc(OS(=O)(=O)c4ccc(C)cc4)cc3)cc2)cc1`, the T/C was 98 % of control under setting [1]; 93 % of control under setting [2]; 96 % of control under setting [5]; 93 % of control (dose: 100.0 mg/kg/injection, schedule: Q04DX003 (ip), vehicle: Klucel (hydroxypropylcellulose) (HPC)); 93 % of control under setting [3]; 91 % of control under setting [6]. In addition, the T/C was 95 % of control (dose: 200.0 mg/kg/injection, schedule: Q04DX003 (ip), vehicle: Klucel (hydroxypropylcellulose) (HPC)); 90 % of control under setting [4]; 91 % of control under setting [7]; 98 % of control (dose: 400.0 mg/kg/injection, schedule: Q04DX003 (ip), vehicle: Klucel (hydroxypropylcellulose) (HPC)).

Turning to `Nc1ncnc2c1ccn2Cc1ccccc1`, the T/C by setting is: (dose: 50.0 mg/kg/injection, schedule: Q01DX001 (ip), vehicle: other) 111 % of control; under setting [8], 97 % of control; under setting [9], 97 % of control; under setting [10], 103 % of control.

For the compound `Cc1cc(C)c(NC(C)C)c(C)c1N`, the T/C was 92 % of control (dose: 50.0 mg/kg/injection, schedule: Q04DX002 (ip), vehicle: Klucel (hydroxypropylcellulose) (HPC)); 104 % of control under setting [2]; 92 % of control (dose: 100.0 mg/kg/injection, schedule: Q04DX002 (ip), vehicle: Klucel (hydroxypropylcellulose) (HPC)); 92 % of control under setting [3]; 95 % of control (dose: 200.0 mg/kg/injection, schedule: Q04DX002 (ip), vehicle: Klucel (hydroxypropylcellulose) (HPC)); 93 % of control under setting [4].

For `Cc1ccc([N+](=O)[O-])cc1NC(=O)Nc1ccc([N+](=O)[O-])cc1`, the T/C under setting [5] is 90 % of control, the T/C under setting [6] was 90 % of control and the T/C under setting [7] is 98 % of control.

With `NC(N)=Nc1cccc(OCCCOc2ccccc2)c1`, the T/C by setting is: (dose: 150.0 mg/kg/injection, schedule: Q01DX001 (ip), vehicle: saline with Tween-80) 88 % of control; (dose: 300.0 mg/kg/injection, schedule: Q01DX001 (ip), vehicle: saline with Tween-80) 94 % of control.

As to `CC(=O)c1cccc(NC(=O)Nc2ncccc2C)c1`, the T/C is, setting by setting: under setting [5], 102 % of control; under setting [6], 101 % of control; under setting [7], 98 % of control.

`O=C(NO)N/N=C/c1ccccc1`: the T/C reads like this: under setting [8], 104 % of control; (dose: 100.0 mg/kg/injection, schedule: Q01DX009 (ip), vehicle: saline with Tween-80) 104 % of control; (dose: 100.0 mg/kg/injection, schedule: Q04DX003 (ip), vehicle: other) 113 % of control; under setting [9], 98 % of control; (dose: 200.0 mg/kg/injection, schedule: Q01DX009 (ip), vehicle: saline with Tween-80) 107 % of control; (dose: 200.0 mg/kg/injection, schedule: Q04DX003 (ip), vehicle: other) 95 % of control. Besides, the T/C runs as follows: under setting [10], 98 % of control; (dose: 400.0 mg/kg/injection, schedule: Q01DX009 (ip), vehicle: saline with Tween-80) 110 % of control; (dose: 400.0 mg/kg/injection, schedule: Q04DX003 (ip), vehicle: other) 93 % of control.
